From US10144746B2 (GLOBAL BLOOD THERAPEUTICS, INC., priority 2015, dated 2018)
Counter-ions that a name gives are not always drawn.

Target: Human plasma kallikrein (Homo sapiens (Human), UniProt P03952)
Assay: In vitro plasma kallikrein inhibition assay (chromogenic substrate D-Pro-Phe-Arg-pNa, absorbance at 405 nm, IC50 determination)
Format: biochemical
Details: for IC50: read-out: KLKB1 pIC50 (converted)

Sequence of Human plasma kallikrein (P03952 391-638): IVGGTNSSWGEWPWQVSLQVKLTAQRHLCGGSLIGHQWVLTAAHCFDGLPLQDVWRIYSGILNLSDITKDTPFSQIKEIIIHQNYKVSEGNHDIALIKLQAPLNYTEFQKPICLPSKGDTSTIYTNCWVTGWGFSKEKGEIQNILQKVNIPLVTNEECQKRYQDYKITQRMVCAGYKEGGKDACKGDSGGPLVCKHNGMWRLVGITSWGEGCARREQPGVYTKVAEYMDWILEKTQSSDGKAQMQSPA
Sequence of Human plasma kallikrein (P03952 20-390 partner): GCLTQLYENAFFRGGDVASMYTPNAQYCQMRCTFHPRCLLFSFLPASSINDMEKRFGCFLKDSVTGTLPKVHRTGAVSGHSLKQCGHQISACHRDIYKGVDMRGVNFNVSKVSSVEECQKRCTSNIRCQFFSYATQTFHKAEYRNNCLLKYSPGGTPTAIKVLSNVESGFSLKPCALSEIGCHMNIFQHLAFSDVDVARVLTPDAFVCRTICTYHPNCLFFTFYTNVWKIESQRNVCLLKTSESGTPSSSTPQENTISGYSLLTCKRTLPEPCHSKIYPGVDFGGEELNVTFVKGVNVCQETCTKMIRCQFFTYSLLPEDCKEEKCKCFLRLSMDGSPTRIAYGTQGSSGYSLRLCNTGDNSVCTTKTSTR

Row | Compound | IC50 [nM] | KLKB1 pIC50
1 | Cc1ccc(C(=O)c2ccc3c(c2)[C@H]2O[C@@H]3c3ccc(C(=O)NCc4c(C)cc(N)nc4C)cc32)o1 (single isomer, unassigned) [Example 279] | 22.9 | 
2 | N=C(N)c1cc(F)c(CNC(=O)c2ccc3c(c2)[C@@H]2O[C@H]3c3ccc(C4CC4)cc32)c(F)c1 (single isomer, unassigned) [Example 280] | 0.759 | 
3 | CC(F)(F)c1ccc2c(c1)[C@H]1O[C@@H]2c2ccc(C(=O)NCc3ccc(C(=N)N)cc3)cc21 (single isomer, unassigned) [Example 281] | 10 | 
4 | N#Cc1cc(NC(=N)c2ccc3c(c2)[C@@H]2O[C@H]3c3ccc(-c4ccc(F)cc4F)cc32)ccc1F (single isomer, unassigned) [Example 283] | 100000 | 
5 | CC(C)(F)c1ccc2c(c1)[C@H]1O[C@@H]2c2ccc(C(=O)NCc3ccc(C(=N)N)cc3)cc21 (single isomer, unassigned) [Example 284] | 6.31 | 
6 | C=C(C)c1ccc2c(c1)[C@H]1O[C@@H]2c2ccc(C(=O)NCc3c(F)cc(C(=N)N)cc3F)cc21 (single isomer, unassigned) [Example 285] | 1 | 
7 | N=C(N)c1cc(F)c(CNC(=O)c2ccc3c(c2)[C@@H]2O[C@H]3c3ccc(-n4cccn4)cc32)c(F)c1 (single isomer, unassigned) [Example 286] | 2.45 | 
8 | Cc1nc(N)cc(C(C)C)c1CNC(=O)c1ccc2c(c1)[C@@H]1O[C@H]2c2ccc(-c3c(F)ccc[n+]3[O-])cc21 (single isomer, unassigned) [Example 289] | 123 | 
9 | N=C(N)c1ccc(CNC(=O)c2ccc3c(c2)[C@@H]2O[C@H]3c3ccc(-c4ccccc4F)cc32)c(F)c1 (single isomer, unassigned) [Example 290] | 1 | 
10 | NC(=O)c1cccc(CNC(=O)c2ccc3c(c2)[C@@H]2O[C@H]3c3ccc(-c4ccc(F)cc4F)cc32)c1 (single isomer, unassigned) [Example 292] | 100000 | 
11 | Nc1nccc2c(CNC(=O)c3ccc4c(c3)[C@@H]3O[C@H]4c4ccc(-c5ccccc5F)cc43)c(Cl)ccc12 (single isomer, unassigned) [Example 294] | 20.9 | 
12 | Nc1nccc2cc(Cl)c(CNC(=O)c3ccc4c(c3)[C@@H]3O[C@H]4c4ccc(-c5ccccc5F)cc43)cc12 (single isomer, unassigned) [Example 295] | 10000 | 
13 | N=C(N)c1cc(F)c(CNC(=O)c2ccc3c(c2)[C@@H]2O[C@H]3c3ccc(CCC(F)(F)F)cc32)c(F)c1 (single isomer, unassigned) [Example 296] | 1 | 
14 | CC(C)c1ccc2c(c1)[C@H]1O[C@@H]2c2ccc(C(=O)NCc3c(F)cc(C(=N)N)cc3F)cc21 (single isomer, unassigned) [Example 298] | 2 | 
15 | COc1cc(N)nc(C)c1CNC(=O)c1ccc2c(c1)C1OC2c2ccc(-c3ccc(F)cc3F)cc21 (stereo not drawn) [Example 80] |  | 7.57
16 | COc1cc(N)nc(C)c1CNC(=O)c1ccc2c(c1)C1OC2c2ccc(-c3ccc(Cl)c(F)c3F)cc21 (stereo not drawn) [Example 109, trifluoroacetate salt] |  | 7.59
17 | NC(=NO)c1ccc(CNC(=O)c2ccc3c(c2)[C@@H]2O[C@H]3c3ccc(-c4ccc(F)cc4F)cc32)cc1 [Example 203, (1R,8S)-12-(2,4-difluorophenyl)-N-{[4-(N′-hydroxycarbamimidoyl)phenyl]methyl}-15-oxatetracyclo[6.6.1.0^2,^7.0^9,1^4] pentadeca-2,4,6,9,11,13-hexaene-4-carboxamide] |  | 5.98
18 | NC(=NO)c1ccc(CNC(=O)c2ccc3c(c2)[C@@H]2O[C@H]3c3ccc(-c4ccccc4F)cc32)cc1 [Example 204, (1R,8S)-12-(2-fluorophenyl)-N-{[4-(N′-hydroxycarbamimidoyl)phenyl]methyl}-15-oxatetracyclo[6.6.1.0^2,^7.0^9,1^4] pentadeca-2,4,6,9,11,13-hexaene-4-carboxamide] |  | 6.03
19 | CON=C(N)c1ccc(CNC(=O)c2ccc3c(c2)[C@@H]2O[C@H]3c3ccc(-c4ccc(F)cc4F)cc32)cc1 [Example 225] |  | 5
20 | CON=C(N)c1ccc(CNC(=O)c2ccc3c(c2)[C@@H]2O[C@H]3c3ccc(-c4ccccc4F)cc32)cc1 [Example 240, (1R,8S)-12-(2-fluorophenyl)-N-{[4-(N′-methoxy-carbamimidoyl)phenyl]methyl}-15-oxatetracyclo-[6.6.1.0^2,^7.0^9,1^4]pentadeca-2,4,6,9,11,13-hexaene-4-carboxamide] |  | 4
21 | CON=C(N)c1ccc(CNC(=O)c2ccc3c(c2)[C@@H]2O[C@H]3c3ccc(-c4ccc(F)cc4)cc32)cc1 [Example 241, (1R,8S)-12-(4-fluorophenyl)-N-{[4-(N′-methoxy-carbamimidoyl)pheny]methyl}-15-oxatetracyclo-[6.6.1.0^2,^7.0^9,1^4]pentadeca-2,4,6,9,11,13-hexaene-4-carboxamide] |  | 4
22 | CON=C(N)c1ccc(CNC(=O)c2ccc3c(c2)[C@@H]2O[C@H]3c3ccc(-c4ccc(Cl)s4)cc32)cc1 [Example 251, (1S,8R)-12-(5-chlorothiophen-2-yl)-N-({4-[N′-methoxycarbamimidoyl]phenyl}methyl)-15-oxatetracyclo[6.6.1.0^2,^7.0^9,1^4] pentadeca-2,4,6,9,11,13-hexaene-4-carboxamide] |  | 4
23 | CON=C(N)c1cc(F)c(CNC(=O)c2ccc3c(c2)[C@@H]2O[C@H]3c3ccc(-c4ccc(F)cc4F)cc32)c(F)c1 [Example 255, (1R,8S)-N-({2,6-difluoro-4-[N′-methoxy-carbamimidoyl]phenyl}methyl)-12-(2,4-difluorophenyl)-15-oxatetracyclo[6.6.1.0^2,^7.0^9,1^4]-pentadeca-2,4,6,9,11,13-hexaene-4-carboxamide] |  | 6.18

Other lines, results leading:

Row | IC50 [nM] | KLKB1 pIC50 | Compound
24 | 30.9 |  | Cc1ccc2c(N)nccc2c1CNC(=O)c1ccc2c(c1)[C@@H]1O[C@H]2c2ccc(-c3ccccc3F)cc21 (single isomer, unassigned) [Example 299]
25 | 1 |  | N=C(N)c1ccc(CNC(=O)c2ccc3c(c2)[C@@H]2O[C@H]3c3ccc(C4CC4)cc32)c(F)c1 (single isomer, unassigned) [Example 302]
26 | 8.91 |  | N=C(N)c1ccc(CNC(=O)c2ccc3c(c2)[C@@H]2O[C@H]3c3ccc(-n4cccn4)cc32)cc1 (single isomer, unassigned) [Example 305]
27 | 1 |  | Cc1cc(C(=N)N)ccc1CNC(=O)c1ccc2c(c1)[C@@H]1O[C@H]2c2ccc(-c3ccc(F)cc3F)cc21 (single isomer, unassigned) [Example 306]
28 | 1 |  | N=C(N)c1ccc(CNC(=O)c2ccc3c(c2)[C@@H]2O[C@H]3c3ccc(N4CC(F)(F)C4)cc32)cc1 (single isomer, unassigned) [Example 307]
29 | 1 |  | Cc1cc(C(=N)N)ccc1CNC(=O)c1ccc2c(c1)[C@@H]1O[C@H]2c2ccc(-n3cccn3)cc21 (single isomer, unassigned) [Example 312]
30 | 100000 |  | O=C(NCC1CNC1)c1ccc2c(c1)[C@@H]1O[C@H]2c2ccc(-c3ccc(F)cc3F)cc21 (single isomer, unassigned) [Example 323]
31 | 100000 |  | O=C(N[C@@H]1CCNC1)c1ccc2c(c1)[C@@H]1O[C@H]2c2ccc(-c3ccc(F)cc3F)cc21 (single isomer, unassigned) [Example 324]
32 | 42700 |  | O=C(N[C@H]1CCNC1)c1ccc2c(c1)[C@@H]1O[C@H]2c2ccc(-c3ccc(F)cc3F)cc21 (single isomer, unassigned) [Example 325]
33 | 427 |  | N=C(N)c1ccc(CNC(=O)c2ccc3c(c2)[C@@H]2O[C@H]3c3ccc(C4CC4)cc32)nc1 (single isomer, unassigned) [Example 327]
34 | 7.08 |  | CC(C)c1ccc2c(c1)[C@H]1O[C@@H]2c2ccc(C(=O)NCc3ccc(C(=N)N)cc3)cc21 (single isomer, unassigned) [Example 328]
35 | 1 |  | N=C(N)c1ccc(CNC(=O)c2ccc3c(c2)[C@@H]2O[C@H]3c3ccc(-c4ccc(F)cc4)cc32)c(F)c1 (single isomer, unassigned) [Example 329]
36 | 1 |  | Cc1cc(C(=N)N)cc(C)c1CNC(=O)c1ccc2c(c1)[C@@H]1O[C@H]2c2ccc(C3CC3)cc21 (single isomer, unassigned) [Example 331]
37 | 63.1 |  | N=C(N)c1ccc(CNC(=O)c2ccc3c(c2)[C@@H]2O[C@H]3c3ccc(-c4ccc(F)cc4F)cc32)nc1 (single isomer, unassigned) [Example 332]
38 | 5.01 |  | N=C(N)c1cc(F)c(CNC(=O)c2ccc3c(c2)[C@@H]2O[C@H]3c3ccc(N4CCS(=O)(=O)CC4)cc32)c(F)c1 (single isomer, unassigned) [Example 336]
39 | 26.9 |  | N=C(N)c1ccc(CNC(=O)c2ccc3c(c2)[C@@H]2O[C@H]3c3ccc(N4CCS(=O)(=O)CC4)cc32)cc1 (single isomer, unassigned) [Example 337]
40 | 5.89 |  | COc1cc(CNC(=O)c2ccc3c(c2)[C@@H]2O[C@H]3c3ccc(-c4ccc(F)cc4F)cc32)ccc1C(=N)N (single isomer, unassigned) [Example 338]
41 | 100000 |  | O=C(NC1CCCNCC1)c1ccc2c(c1)[C@@H]1O[C@H]2c2ccc(-c3ccc(F)cc3F)cc21 (single isomer, unassigned) [Example 343]
42 | 100000 |  | Nc1cc(NC(=O)c2ccc3c(c2)[C@@H]2O[C@H]3c3ccc(-c4ccc(F)cc4F)cc32)ccn1 (single isomer, unassigned) [Example 347]
43 | 1 |  | CCc1cc2c(cc1CC)[C@H]1O[C@@H]2c2ccc(C(=O)NCc3ccc(C(=N)N)cc3)cc21 (single isomer, unassigned) [Example 392]
44 | 100 |  | N=C(N)c1ccc(CNC(=O)c2ccc3c(c2)[C@H]2O[C@@H]3c3cc(C4CC4)c(C4CC4)cc32)cc1 (single isomer, unassigned) [Example 399]
45 | 1 |  | N=C(N)c1ccc(CNC(=O)c2ccc3c(c2)[C@@H]2O[C@H]3c3cc(C4CC4)c(C4CC4)cc32)cc1 (single isomer, unassigned) [Example 400]
